Measured values reported in patent publication US12479856B2, “Pharmaceutical compounds for the treatment of complement mediated disorders” (Achillion Pharmaceuticals, Inc., priority 2019, dated 2025).

target: T1, Human complement C1s enzyme (Homo sapiens, UniProt P09871); experiment: Human C1s Enzyme Assay; assay type: biochemical; conditions: Table 1; C1s purified from human serum, 1.16 nM; substrate Z-L-Lys-SBzl; read-out: C1s Protease Activity
T1 construct: purified from human serum, Complement Technology, Inc; purchased Complement Technology, Inc; host or cells: human serum (plasma-derived natural protein)
T1 sequence (P09871 438-688 limits assumed): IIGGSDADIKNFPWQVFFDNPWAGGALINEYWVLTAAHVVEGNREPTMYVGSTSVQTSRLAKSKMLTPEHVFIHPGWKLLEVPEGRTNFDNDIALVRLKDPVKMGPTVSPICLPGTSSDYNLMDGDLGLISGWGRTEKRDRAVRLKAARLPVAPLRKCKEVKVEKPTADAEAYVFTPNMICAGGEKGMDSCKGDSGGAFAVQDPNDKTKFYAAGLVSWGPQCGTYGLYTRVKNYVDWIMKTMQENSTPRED
T1 sequence (P09871 16-437 partner limits assumed): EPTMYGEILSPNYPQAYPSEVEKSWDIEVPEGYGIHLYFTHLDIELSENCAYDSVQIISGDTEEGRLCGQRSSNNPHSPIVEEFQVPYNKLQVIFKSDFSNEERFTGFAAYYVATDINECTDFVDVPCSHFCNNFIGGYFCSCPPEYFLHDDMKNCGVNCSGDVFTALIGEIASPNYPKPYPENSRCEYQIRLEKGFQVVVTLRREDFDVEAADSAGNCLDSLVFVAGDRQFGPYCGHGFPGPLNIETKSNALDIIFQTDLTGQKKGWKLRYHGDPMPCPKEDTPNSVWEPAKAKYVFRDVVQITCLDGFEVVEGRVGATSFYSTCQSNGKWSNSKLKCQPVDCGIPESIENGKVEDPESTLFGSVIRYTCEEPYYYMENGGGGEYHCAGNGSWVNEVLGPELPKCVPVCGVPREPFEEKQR
Procedure: Example 4. Human C1s Enzyme Assay
Human complement C1s enzyme (purified from human serum, Complement Technology, Inc.) at 1.16 nM final concentration is incubated with test compound at various concentrations for 5 min at room temperature in 50 mM Tris, 1 M NaCl, pH 7.5. A synthetic substrate Z-L-Lys-SBzl and DTNB (Ellman's reagent) are added to final concentrations of 100 μM each. Absorbance at 405 nm (A405) is recorded at 30 second intervals for 30 min using a microplate spectrophotometer. IC50 values are calculated by nonlinear regression of complement C1s reaction rates as a function of test compound concentration.

`Cc1ccc(Oc2ccc(C(=O)NCC(=O)N3CC4(C[C@H]3C(=O)NCc3cc(C(=N)N)cs3)OCCO4)cc2)cc1` [Compound 1, (8S)—N-[(4-carbamimidoylthiophen-2-yl)methyl]-7-(2-{[4-(4-methylphenoxy)phenyl]formamido}acetyl)-1,4-dioxa-7-azaspiro[4.4]nonane-8-carboxamide] and `N=C(N)c1csc(CNC(=O)[C@@H]2CC3(CN2C(=O)CNC(=O)c2ccc(Oc4ccccc4)cc2)OCCO3)c1` [Compound 2, (8S)—N-[(4-carbamimidoylthiophen-2-yl)methyl]-7-{2-[(4-phenoxyphenyl)formamido]acetyl}-1,4-dioxa-7-azaspiro[4.4]nonane-8-carboxamide] cannot be ordered by IC50: < 100 nM for the first, < 100 nM for the second.

Compared with `C[C@@]1(C(=O)NCc2cc(C(=N)N)cs2)CCCN1C(=O)CNC(=O)c1ccc(Oc2ccccc2)cc1` [Compound 3, (2S)—N-[(4-Carbamimidoylthiophen-2-yl)methyl]-2-methyl-1-{2-[(4-phenoxyphenyl)formamido]acetyl}pyrrolidine-2-carboxamide], `N=C(N)c1csc(CNC(=O)[C@H]2CCCN2C(=O)CNC(=O)c2ccc(Oc3ccccc3)cc2)c1` [Compound 5, (2R)—N-[(4-Carbamimidoylthiophen-2-yl)methyl]-1-{2-[(4-phenoxyphenyl)-formamido]acetyl}pyrrolidine-2-carboxamide] is higher in IC50: < 100 nM for the first, > 1000 nM for the second. The first is the more potent here.

First: N=C(N)c1csc(CNC(=O)[C@@H]2CSCN2C(=O)CNC(=O)c2ccc(Oc3ccccc3)cc2)c1 [Compound 4, (4R)—N-[(4-Carbamimidoylthiophen-2-yl)methyl]-3-{2-[(4-phenoxyphenyl)formamido]acetyl}-1,3-thiazolidine-4-carboxamide]
Second: N=C(N)c1csc(CNC(=O)[C@@H]2CN2C(=O)CNC(=O)c2ccc(Oc3ccccc3)cc2)c1 [Compound 14, (2S)—N-[(4-Carbamimidoylthiophen-2-yl)methyl]-1-{2-[(4-phenoxyphenyl)formamido]acetyl}aziridine-2-carboxamide]
The IC50 of the first is lower: < 100 nM for the first, 100 to 1000 nM for the second. The first is the more potent here.

`C=C1C[C@@H](C(=O)NCc2cc(C(=N)N)cs2)N(C(=O)CNC(=O)c2ccc(Oc3ccccc3)cc2)C1` [Compound 6, (2S)—N-[(4-Carbamimidoylthiophen-2-yl)methyl]-4-methylidene-1-{2-[(4-phenoxyphenyl)formamido]acetyl}pyrrolidine-2-carboxamide] and `N=C(N)c1csc(CNC(=O)[C@@H]2CC(=O)CN2C(=O)CNC(=O)c2ccc(Oc3ccccc3)cc2)c1` [Compound 15, (2S)—N-[(4-Carbamimidoylthiophen-2-yl)methyl]-4-oxo-1-{2-[(4-phenoxyphenyl)formamido]acetyl}pyrrolidine-2-carboxamide] cannot be ordered by IC50: < 100 nM for the first, < 100 nM for the second.

`N=C(N)c1csc(CNC(=O)C2N(C(=O)CNC(=O)c3ccc(Oc4ccccc4)cc3)CC23CCC3)c1` (stereo not shown) [Compound 7, N-[(4-Carbamimidoylthiophen-2-yl)methyl]-2-{2-[(4-phenoxyphenyl)formamido]acetyl}-2-azaspiro[3.3]heptane-1-carboxamide] and `N=C(N)c1csc(CNC(=O)C2CC3(CCC3)CN2C(=O)CNC(=O)c2ccc(Oc3ccccc3)cc2)c1` (stereo not shown) [Compound 11, N-[(4-Carbamimidoylthiophen-2-yl)methyl]-6-{2-[(4-phenoxyphenyl)formamido]acetyl}-6-azaspiro[3.4]octane-7-carboxamide] cannot be ordered by IC50: < 100 nM for the first, < 100 nM for the second.

`C[C@@]12C[C@@H](C(=O)NCc3cc(C(=N)N)cs3)N(C(=O)CNC(=O)c3ccc(Oc4ccccc4)cc3)[C@@H]1C2` [Compound 8, (1R,3S,5R)—N-[(4-Carbamimidoylthiophen-2-yl)methyl]-5-methyl-2-{2-[(4-phenoxyphenyl)formamido]acetyl}-2-azabicyclo[3.1.0]hexane-3-carboxamide] and `C[C@@]12C[C@@H]1N(C(=O)CNC(=O)c1ccc(Oc3ccccc3)cc1)[C@H](C(=O)NCc1cc(C(=N)N)cs1)C2` [Compound 9, (1S,3S,5S)—N-[(4-Carbamimidoylthiophen-2-yl)methyl]-5-methyl-2-{2-[(4-phenoxyphenyl)formamido]acetyl}-2-azabicyclo[3.1.0]hexane-3-carboxamide] cannot be ordered by IC50: < 100 nM for the first, < 100 nM for the second.

Compared with `N=C(N)c1csc(CNC(=O)C2CC3(CC3)CN2C(=O)CNC(=O)c2ccc(Oc3ccccc3)cc2)c1` (stereo not shown) [Compound 10, N-[(4-Carbamimidoylthiophen-2-yl)methyl]-5-{2-[(4-phenoxyphenyl)formamido]acetyl}-5-azaspiro[2.4]heptane-6-carboxamide], `N=C(N)c1csc(CNC(=O)[C@@H]2CC3(CCCC3)CN2C(=O)CNC(=O)c2ccc(Oc3ccccc3)cc2)c1` [Compound 12, (3S)—N-[(4-Carbamimidoylthiophen-2-yl)methyl]-2-{2-[(4-phenoxyphenyl)formamido]acetyl}-2-azaspiro[4.4]nonane-3-carboxamide] is lower in IC50: 100 to 1000 nM for the first, < 100 nM for the second.

`N=C(N)c1csc(CNC(=O)[C@@H]2CC3(CCCCC3)CN2C(=O)CNC(=O)c2ccc(Oc3ccccc3)cc2)c1` [Compound 13, (3S)—N-[(4-Carbamimidoylthiophen-2-yl)methyl]-2-{2-[(4-phenoxyphenyl)formamido]acetyl}-2-azaspiro[4.5]decane-3-carboxamide] and `N=C(N)c1cccc(CNC(=O)[C@@H]2CC3(CN2C(=O)CNC(=O)c2ccc(Oc4ccccc4)cc2)OCCO3)c1` [Compound 18, (8S)—N-[(3-Carbamimidoylphenyl)methyl]-7-{2-[(4-phenoxyphenyl)formamido]acetyl}-1,4-dioxa-7-azaspiro[4.4]nonane-8-carboxamide] cannot be ordered by IC50: > 1000 nM for the first, > 1000 nM for the second.

`N=C(N)CCCNC(=O)[C@@H]1CC2(CN1C(=O)CNC(=O)c1ccc(Oc3ccccc3)cc1)OCCO2` [Compound 16, (8S)—N-(3-Carbamimidoylpropyl)-7-{2-[(4-phenoxyphenyl)formamido]acetyl}-1,4-dioxa-7-azaspiro[4.4]nonane-8-carboxamide] and `N=C(N)CCCCNC(=O)[C@@H]1CC2(CN1C(=O)CNC(=O)c1ccc(Oc3ccccc3)cc1)OCCO2` [Compound 17, (8S)—N-(4-Carbamimidoylbutyl)-7-{2-[(4-phenoxyphenyl)formamido]acetyl}-1,4-dioxa-7-azaspiro[4.4]nonane-8-carboxamide] cannot be ordered by IC50: > 1000 nM for the first, > 1000 nM for the second.

First: N=C(N)c1ccc(CNC(=O)[C@@H]2CC3(CN2C(=O)CNC(=O)c2ccc(Oc4ccccc4)cc2)OCCO3)cc1 [Compound 19, (8S)—N-[(4-Carbamimidoylphenyl)methyl]-7-{2-[(4-phenoxyphenyl)formamido]acetyl}-1,4-dioxa-7-azaspiro[4.4]nonane-8-carboxamide]
Second: CC(=O)Nc1ccc(CNC(=O)[C@@H]2CC3(CN2C(=O)CNC(=O)c2ccc(Oc4ccccc4)cc2)OCCO3)cc1 [Compound 21, (8S)—N-[(4-Acetamidophenyl)methyl]-7-{2-[(4-phenoxyphenyl)formamido]acetyl}-1,4-dioxa-7-azaspiro[4.4]nonane-8-carboxamide]
The IC50 of the first is lower: < 100 nM for the first, > 1000 nM for the second. The first is the more potent here.

`CC(=O)Nc1cccc(CNC(=O)[C@@H]2CC3(CN2C(=O)CNC(=O)c2ccc(Oc4ccccc4)cc2)OCCO3)c1` [Compound 20, (8S)—N-[(3-Acetamidophenyl)methyl]-7-{2-[(4-phenoxyphenyl)formamido]acetyl}-1,4-dioxa-7-azaspiro[4.4]nonane-8-carboxamide] and `Nc1ccc(CCNC(=O)[C@@H]2CC3(CN2C(=O)CNC(=O)c2ccc(Oc4ccccc4)cc2)OCCO3)cc1` [Compound 23, (8S)—N-[2-(4-Aminophenyl)ethyl]-7-{2-[(4-phenoxyphenyl)formamido]acetyl}-1,4-dioxa-7-azaspiro[4.4]nonane-8-carboxamide] cannot be ordered by IC50: > 1000 nM for the first, > 1000 nM for the second.

`N=C(N)NCCC[C@H](NC(=O)[C@@H]1CC2(CN1C(=O)CNC(=O)c1ccc(Oc3ccccc3)cc1)OCCO2)C(N)=O` [Compound 22, N-{2-[(8S)-8-{[(1S)-4-Carbamimidamido-1-carbamoylbutyl]carbamoyl}-1,4-dioxa-7-azaspiro[4.4]nonan-7-yl]-2-oxoethyl}-4-phenoxybenzamide] and `Nc1cc(CCNC(=O)[C@@H]2CC3(CN2C(=O)CNC(=O)c2ccc(Oc4ccccc4)cc2)OCCO3)ccn1` [Compound 24, (8S)—N-[2-(2-Aminopyridin-4-yl)ethyl]-7-{2-[(4-phenoxyphenyl)formamido]acetyl}-1,4-dioxa-7-azaspiro[4.4]nonane-8-carboxamide] cannot be ordered by IC50: > 1000 nM for the first, > 1000 nM for the second.

same assay, conditions: Table 3; C1s purified from human serum, 1.16 nM; substrate Z-L-Lys-SBzl; read-out: C1s Protease Activity

For `N=C(N)c1csc(CNC(=O)C2C3CCC(C3)N2C(=O)CNC(=O)c2ccc(Oc3ccccc3)cc2)c1` (stereo in doubt) [Compound 96, (1R,3R,4S)-N-((4-carbamimidoylthiophen-2-yl)methyl)-2-((4-phenoxybenzoyl)glycyl)-2-azabicyclo[2.2.1]heptane-3-carboxamide], the IC50 was < 100 nM.
